Values joined by “and” are separate entries in the source; they are usually repeats but may differ in a detail not shown here. Equal entries are not always repeated.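 Five concentrations, 48 hours, 96-well plates. GI50 marks 50% less growth. Definition used: TGI = concentration required for complete inhibition of growth.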 A value given as a limit tells only on which side of the number the result lay.

Some test systems named below: SK-MEL-28 melanoma; A549 NSCLC; SN12C renal; HCT-15 colon; HCT-116 colon; NCI-H226 lung; OVCAR-5 ovarian; SK-OV-3 ovarian; MDA-MB-435; HOP-62 NSCLC.
What all share (assay): NCI tumour cell line growth inhibition, 48 h

Take `CC(=O)Oc1ccc(C(c2ccc(OC(C)=O)cc2)c2ccccn2)cc1`: the GI50 in the assay on SK-MEL-28 melanoma was 61.5 µM; in the assay with A549 NSCLC it was 49.7 µM; in the assay with SN12C renal it was 0.558 µM; in the assay on HCT-15 colon it was 31.8 µM; with HCT-116 colon, 40.7 µM; in the assay on NCI-H226 lung, 40.2 µM. In addition, the GI50 in the assay on OVCAR-5 ovarian was 55.7 µM; in the assay on SK-OV-3 ovarian, 31.7 µM; with MDA-MB-435, 53.2 µM; in the assay with HOP-62 NSCLC, more than 58.3 µM. Besides, the TGI with SK-MEL-28 melanoma, with A549 NSCLC, with SN12C renal, in the assay with HCT-15 colon, with HCT-116 colon and with NCI-H226 lung was more than 100 µM in each case. In addition, the TGI was > 100 µM and 95.4 µM in the assay with OVCAR-5 ovarian; > 100 µM and 98.3 µM in the assay on SK-OV-3 ovarian; more than 100 µM in the assay with MDA-MB-435; more than 100 µM in the assay on HOP-62 NSCLC.

Regarding `OCCN1CCN(CC/C=C2\c3ccccc3Sc3ccc(Cl)cc32)CC1`, the GI50 was 1.66 µM in the assay on SK-MEL-28 melanoma; 4.79 µM and 4.13 µM with A549 NSCLC; 7.12 µM and 7.01 µM with SN12C renal; 1.84 µM and 2 µM in the assay on HCT-15 colon; 2.39 µM and 1.98 µM with HCT-116 colon; 6.93 µM with NCI-H226 lung. Besides, the GI50 in the assay on OVCAR-5 ovarian was 3.75 µM and 11.8 µM; with SK-OV-3 ovarian, 6.48 µM and 5.76 µM; in the assay with MDA-MB-435 it was 1.99 µM and 2.01 µM; with HOP-62 NSCLC, 4.07 µM and 2.62 µM. The TGI in the assay on SK-MEL-28 melanoma was 3.91 µM and 3.03 µM; in the assay on A549 NSCLC, 22.9 µM and 14.3 µM; with SN12C renal, 27.4 µM and 20.4 µM; with HCT-15 colon, 3.64 µM and 4.29 µM; in the assay on HCT-116 colon, 4.85 µM and 4.18 µM; in the assay on NCI-H226 lung, 22.1 µM. For the same compound, the TGI in the assay with OVCAR-5 ovarian was 14.1 µM and 24.9 µM; with SK-OV-3 ovarian, 19.1 µM and 16.9 µM; in the assay with MDA-MB-435, 4.78 µM and 4.63 µM; in the assay with HOP-62 NSCLC it was 14.5 µM and 7.04 µM.

Regarding `Cc1cc(OCc2nnc3n2N=C(c2ccc(Cl)cc2Cl)CS3)ccc1Cl`, the GI50 in the assay on SK-MEL-28 melanoma was 79.3 µM; in the assay with A549 NSCLC it was 56.3 µM; in the assay with SN12C renal it was 38.7 µM; in the assay on HCT-15 colon it was 39.4 µM; in the assay with HCT-116 colon it was 53 µM; in the assay with NCI-H226 lung, 43.6 µM. For the same compound, the GI50 is more than 100 µM with OVCAR-5 ovarian, more than 100 µM in the assay on SK-OV-3 ovarian, 26.5 µM with MDA-MB-435 and more than 100 µM with HOP-62 NSCLC. For the same compound, the TGI with SK-MEL-28 melanoma, in the assay with A549 NSCLC, in the assay on SN12C renal, in the assay with HCT-15 colon, with HCT-116 colon and in the assay with NCI-H226 lung was more than 100 µM throughout. In addition, the TGI with OVCAR-5 ovarian, with SK-OV-3 ovarian, in the assay with MDA-MB-435 and in the assay on HOP-62 NSCLC was more than 100 µM throughout.

Consider `Cc1ncc([N+](=O)[O-])n1CCNC(=O)Cn1c([N+](=O)[O-])cnc1C`, for which the TGI in the assay with SK-MEL-28 melanoma, in the assay on A549 NSCLC, in the assay on SN12C renal, with HCT-15 colon, with HCT-116 colon and in the assay with NCI-H226 lung was more than 100 µM each time. The TGI in the assay on OVCAR-5 ovarian, in the assay with SK-OV-3 ovarian, in the assay with MDA-MB-435 and in the assay on HOP-62 NSCLC was more than 100 µM in each case.

On to `Oc1ccc(Cl)cc1CNc1nc2ccccc2[nH]1`, for which the GI50 is 13.6 µM in the assay on SK-MEL-28 melanoma; 12.7 µM in the assay on A549 NSCLC; 13.7 µM with SN12C renal; 11.5 µM in the assay on HCT-15 colon; 12.1 µM in the assay on HCT-116 colon; 19.6 µM with NCI-H226 lung. Moreover, the GI50 with OVCAR-5 ovarian is 17.8 µM; with SK-OV-3 ovarian, 16.8 µM; in the assay on MDA-MB-435, 13.2 µM; with HOP-62 NSCLC, 11.8 µM. Also, the TGI with SK-MEL-28 melanoma was 27.9 µM; in the assay with A549 NSCLC, 30.2 µM; with SN12C renal, 29.4 µM; in the assay with HCT-15 colon it was 26.1 µM; in the assay on HCT-116 colon, 24.7 µM; in the assay on NCI-H226 lung, 50.2 µM. In addition, the TGI stood at 34.4 µM with OVCAR-5 ovarian, 34.8 µM in the assay on SK-OV-3 ovarian, 26.2 µM in the assay on MDA-MB-435 and 27.2 µM in the assay with HOP-62 NSCLC.

In the case of `C=C1c2c(Cl)ccc(O)c2C(O)=C2C(=O)[C@]3(O)C(O)=C(C(N)=O)C(=O)[C@@H](N(C)C)[C@@H]3[C@@H](O)[C@H]12`, the GI50 was 1.08 µM in the assay on SK-MEL-28 melanoma; 1.39 µM in the assay with A549 NSCLC; 1.38 µM in the assay with SN12C renal; 1.44 µM in the assay on HCT-15 colon; 0.97 µM with HCT-116 colon; 1.59 µM with NCI-H226 lung. Moreover, the GI50 in the assay with OVCAR-5 ovarian is 2.09 µM; with SK-OV-3 ovarian it was 1 µM; in the assay with MDA-MB-435, 1.53 µM; with HOP-62 NSCLC, 0.984 µM. Besides, the TGI in the assay with SK-MEL-28 melanoma was 4.45 µM; in the assay with A549 NSCLC, 16.6 µM; in the assay with SN12C renal, 12.4 µM; in the assay on HCT-15 colon, more than 50 µM; in the assay on HCT-116 colon it was 3.22 µM; in the assay with NCI-H226 lung, 8.91 µM. Besides, the TGI in the assay on OVCAR-5 ovarian turned out to be 25.4 µM; with SK-OV-3 ovarian, 3.2 µM; in the assay on MDA-MB-435, 7.97 µM; with HOP-62 NSCLC it was 3.1 µM.
